In brackets after ≈: the same amount, converted by molar mass.
How the values were obtained:
[1] = tested on: hormone receptor-positive breast cancer cell line (MCF-7); experiment: Resazurin cytotoxicity assay, MCF-7; assay type: cell-based; details: for IC50: Homo sapiens, MCF7; for SI (Selectivity Index), IC50 of MCF-12A/IC50 of MCF-7: MCF-7 versus MCF-12A
[2] = tested on: non-tumorigenic breast epithelial cell line (MCF-12A); experiment: Resazurin cytotoxicity assay, MCF-12A; assay type: cell-based; details: Homo sapiens, MCF-12A cells, 96 h treatment, read-out: IC50 (µM) MCF12A
Description: (§1) The cytotoxicity of the pure compounds was evaluated using the in vitro cell culture against triple-negative breast cancer (HCC70) cell lines, hormone receptor-positive breast cancer (MCF-7), and non-tumorigenic epithelial cell lines derived from breast tissue (MCF-12A). A compound’s ability to inhibit a particular biochemical function is determined by its half-maximum inhibitory concentration (IC50). Etoposide was used as the positive control.
(§2) The cell viability after treatment with the isolated pure compounds of P. angolensis was analyzed using the resazurin assay in commercially available established cell lines purchased from the American Type Culture Collection. Triple-negative breast cancer cell line (HCC70) (estrogen receptor (ER)^−, progesterone receptor (PR), (HER-2)^−, (ATCC-CRL-2315)), hormone receptor-positive (ER^+, PR ^+, HER-2) breast cancer cell line (MCF-7) (ATCC: HTB-22), and non-tumorigenic breast epithelial cell line (MCF-12A) (ATCC: CRL-10782, a kind gift from Anna-Mart Engelbrecht, Stellenbosch University, Stellenbosch, South Africa) were maintained in culture in a 9% CO2 incubator at 37 °C. The HCC70 cell line was cultured in RPMI-1640 media (Gibco, Trenton, MI, USA) supplemented with 10% (v/v) fetal bovine serum (FBS) (BioWest, Nuaillé, France), 1% (v/v) 100 U/mL penicillin, streptomycin, and amphotericin (PSA) (Lonza, Basel, Switzerland), 1% (v/v) GlutaMAX^TM (Gibco) and 0.25% (v/v) sodium bicarbonate (Gibco). The MCF-7 cell line cell was cultured in Dulbecco’s Modified Eagles Medium (DMEM) (Gibco) supplemented with 10% (v/v) FBS, 1% (v/v) PSA and 1% (v/v) GlutaMAX^TM. The MCF-12A cell line was cultured in DMEM/Ham’s F-12 (BioWest) supplemented with 10% (v/v) FBS, 1% (v/v) PSA, 20 ng/mL human epidermal growth factor (Sigma, St. Louis, MO, USA), 100 ng/mL cholera toxin (Sigma), 500 ng/mL hydrocortisone (Abcam, Cambridge, UK) and 10 μg/mL insulin (Novo Nordisk, Bagsværd, Denmark). All cells were seeded into 96-well plates at a density of 5000 cells per well and allowed to adhere for the night in a 9% CO2 incubator at 37 °C. The cells were subsequently treated for 96 h at 37 °C in an incubator with 9 percent CO2 with the isolated compounds with […] at concentrations ranging from 15.63 to 500.00 μM or with 0.2% (v/v) DMSO (Sigma) as a vehicle control. Thereafter, 0.54 nM of resazurin (Glentham Life Sciences, Corsham, UK) solution was added, and cells were then cultured for two to four hours at 37 °C in an incubator with 9% CO2. A Spectramax spectrophotometer (Molecular Devices, Sunnyvale, CA, USA) was used to measure the fluorescence of the resulting solutions. The excitation and emission wavelengths were set at […], respectively. The experiment was repeated in technical triplicate, and the data were analyzed using GraphPad Prism (Boston, MA, USA). […] The selectivity index (SI) value of each compound was calculated as the ratio of IC50 of MCF-12A/IC50 of HCC70 or MFC-7 of the same compound, where an SI > 1 implies toxicity that is preferentially toxic to cancer cells compared to non-cancerous cells.

[3] = tested on: triple-negative breast cancer (HCC70) cell line; experiment: Resazurin cytotoxicity assay, HCC70; assay type: cell-based; details: for IC50 (µM) HCC70 / IC50: HCC70 cells, 96 h treatment, resazurin; for SI (Selectivity Index), IC50 of MCF-12A/IC50 of HCC70: HCC70 versus MCF-12A; for IC50: Homo sapiens
Description: as §1, §2

MCF-7 = tested on: MCF-7; set-up: method as in PMID 28619518; details: 48 h; read-out: activity against MCF-7; cited from earlier work
CYP3A4 = tested on: CYP3A4; set-up: method as in PMID 30122094; details: read-out: inhibition of CYP3A4; cited from earlier work
[4] = tested on: 2E1 human liver microsomal; set-up: method as in PMID 30122094; details: read-out: inhibition of 2E1; cited from earlier work
Lactuca sativa seeds = tested on: Lactuca sativa seeds; set-up: method as in PMID 19127726; details: cited from earlier work
insect-derived sf9 = tested on: insect-derived sf9; set-up: method as in PMID 19127726; details: cited from earlier work
[5] = tested on: glioblastoma U87MG.EGFR cells, CEM/ADR5000 leukemia cells; set-up: method as in earlier work; details: read-out: IC50 cytotoxicity; cited from earlier work
CCRF-CEM cells = tested on: CCRF-CEM cells; set-up: method as in earlier work; details: read-out: IC50 cytotoxicity; cited from earlier work
[6] = tested on: HeLa cervical cancer cells; set-up: method as in doi:10.15408/jkv.v1i1.20068; details: read-out: IC50 cytotoxicity; cited from earlier work
[7] = tested on: oral epithelial carcinoma cells (KB/C152); set-up: method as in PMID 32334461; details: cited from earlier work
[8] = tested on: human ovarian cancer cell line, SKOV3; set-up: method as in PMID 32095097; details: SKOV3 cells; read-out: IC50 cytotoxicity; cited from earlier work
[9] = tested on: human endometrial carcinoma cell line HEC-1A; set-up: method as in PMID 32095097; details: HEC-1A cells; read-out: IC50 cytotoxicity; cited from earlier work
[10] = tested on: Acinetobacter calcaoceuticus; set-up: method as in PMID 19583913; details: cited from earlier work
Staphylococcus aureus = tested on: Staphylococcus aureus; set-up: method as in PMID 19583913; details: cited from earlier work
Staphylococcus typhi = tested on: Staphylococcus typhi; set-up: method as in PMID 19583913; details: cited from earlier work
Kocuria kristinae = tested on: Kocuria kristinae; set-up: method as in PMID 19583913; details: cited from earlier work
[11] = MCF-7 cells, 96 h treatment, resazurin

Compound	IC50 [2] [µM]	IC50 [1, 11] [µM]	SI (Selectivity Index), IC50 of MCF-12A/IC50 of MCF-7 [1]	SI (Selectivity Index), IC50 of MCF-12A/IC50 of HCC70 [3]	IC50 [3] [µM]	also measured
C[C@H]1C(=O)CC[C@@H]2[C@]1(C)CC[C@H]1[C@@]2(C)CC[C@@]2(C)[C@@H]3CC(C)(C)CC[C@]3(C)CC[C@]12C [Compound 1, friedelan-3-one]	43.9					IC50 (µM) MCF7 [1, 11]: Non-Toxic; IC50 (µM) HCC70 [3]: Non-Toxic; IC50 (MCF-7): 1.2 µM; IC50 (CYP3A4): 10.8 µM; IC50 [4]: 22.5 µM
C[C@H]1C(O)C(=O)CC2[C@]3(C)CC[C@@]4(C)C5CC(C)(C)CC[C@]5(C)CC[C@]4(C)C3CC[C@@]21C (stereo partly drawn) [Compound 2, 3α-hydroxyfriedel-2-one]	84.2	157	0.53			phytotoxicity against germination (Lactuca sativa seeds): no phytotoxicity; IC50 (µM) HCC70 [3]: Non-Toxic; cytotoxicity effect on sf9 (insect-derived sf9): 8.32 µg/mL
CC1=C(O)C(=O)CC2[C@]3(C)CC[C@@]4(C)C5CC(C)(C)CC[C@]5(C)CC[C@]4(C)C3CC[C@]12C (some centres unmarked) [Compound 3, 3-hydroxyfriedel-3-en-2-one]	136	101	1.35	0.93	146	melting point: 265 to 268 °C
C=C(C)[C@@H]1CC[C@]2(C)CC[C@]3(C)[C@H](CC[C@@H]4[C@@]5(C)CC[C@H](O)C(C)(C)[C@@H]5CC[C@]43C)[C@@H]12 [Compound 4, lup-20(29)-en-3-ol]	36.6	149	0.25			IC50 [5]: 13.6 to 69.4 µM; IC50 (CCRF-CEM cells): 0.02 to 66.8 µM; IC50 (µM) HCC70 [3]: Non-Toxic
CC[C@H](/C=C/[C@@H](C)[C@H]1CC[C@H]2[C@@H]3CC=C4C[C@@H](O)CC[C@]4(C)[C@H]3CC[C@]12C)C(C)C [Compound 5, Stigmasta-5-22-dien-3-ol]	44.1	227	0.19	0.40	109	IC50 [6]: 26.4 µM; IC50 cytotoxicity [7]: 81.18 µg/mL (≈ 197 µM)
COc1ccc(C(C)C(=O)c2ccc(OC)cc2O)cc1 (centres unmarked) [Compound 6, 4-O-methylangolensis]	148	77.5	1.91	1.32	111	melting point: 70 to 71 °C
CC(=O)OC1CCC2(C)C(CCC3(C)C2CC=C2C4CC(C)(C)CCC4(C(=O)O)CCC23C)C1(C)C (stereo not drawn) [Compound 7, (3β)-3-acetoxyolean-12-en-28-oic acid]	143	83.1	1.72	0.97	147	IC50 [8]: 8.3 µM; IC50 [9]: 0.8 µM
CCCCCCCCCCCCCCOC(=O)/C=C/c1ccc(O)c(OC)c1 [Compound 8, tetradecyl (E)-ferulate]	6.95	223	0.03	0.05	128	melting point: 68 to 70 °C
COc1cc([C@@H]2c3cc4c(cc3[C@@H](O[C@@H]3O[C@@H]5CO[C@@H](C)O[C@H]5[C@H](O)[C@H]3O)[C@H]3COC(=O)[C@H]23)OCO4)cc(OC)c1O [Etoposide, reference compound]	10.9				44.8	
epicatechin-3-O-gallate						minimum inhibition concentration (MIC) [10]: 50 µg/mL; minimum inhibition concentration (MIC) (Staphylococcus aureus): 50 µg/mL
hexamer of epicatechin						minimum inhibition concentration (MIC) (Staphylococcus typhi): 25 µg/mL; minimum inhibition concentration (MIC) (Kocuria kristinae): 25 µg/mL
